Measured values published in US4783402A, “Production of primary or secondary alcohol derivatives of phospholipids by the enzymatic technique” (Meito Sangyo Kabushiki Kaisha, priority 1983, dated 1988).

Legend:
[1] = tested on: phospholipase DM derived from the Actinomadura strain (Actinomadura sp. No. 362, FERM-P No. 6132; BP 511); assay: Influences of various substances on enzyme activity (choline oxidase method, egg-yolk lecithin substrate); format: biochemical; settings: substance at 1 mM in the enzyme reaction system, added instead of the aqueous calcium chloride solution; lecithin emulsion, Tris-HCl pH 7.2, 37° C., 20 minutes
Method: (§1) The enzyme activity of the phospholipase DM utilized in the process of this invention is determined by measuring the amount of a base which is formed when the phospholipase DM acts on the substrate glycerophospholipid to decompose the ester linkage between phosphoric acid and the nitrogen-containing base. Unless otherwise indicated, the activity of phospholipase DM is measured by the choline oxidase method to be described hereinafter.
(§2) Distilled water (0.15 ml), 0.1 ml of 0.2M Tris-HCl buffer (pH 7.2) and 0.05 ml of 0.1M aqueous calcium chloride solution are mixed with 0.1 ml of 1% emulsion of purified lecithin from egg yolk (an emulsion of 0.1 g of lecithin, 1 ml of ethyl ether and 10 ml of distilled water obtained by ultrasonication). To the mixture is added 0.1 ml of an enzyme solution and reacted at 37° C. for 20 minutes. Then, 0.2 ml of 1M Tris-HCl buffer (pH 8.0) containing 50 mM disodium ethylenediamine tetraacetate, and immediately then, the mixture is boiled for 5 minutes, followed by completely stopping the reaction. Then, 4 ml of a solution obtained by dissolving a choline color-forming agent contained in a kit of a reagent for choline esterase measurement (produced by Nippon Shoji Co., Ltd.) in a color dissolving liquid is added, and reacted at 37° C. for 20 minutes. Then, the absorbance of the reaction solution at 500 nm is measured.
(§3) As a control, the absorbance of the product obtained by the same procedure as above except that an enzyme solution previously deactivated by heat is used.
(§4) The activity of the enzyme to liberate 1 micromole of choline per minute is defined as one unit.
(§5) In the method of measuring the activity of the enzyme described hereinabove, 0.05 ml of an aqueous solution of each of various substances is added instead of the aqueous calcium chloride solution so that its concentration in the enzyme reaction system becomes 1 mM. The activity of the enzyme is then measured. The activity of the enzyme at the time of adding water is taken as 100, and the relative activity of the enzyme is determined.

[2] = tested on: phospholipase DM derived from the Nocardiopsis strain (Nocardiopsis sp. No. 779, FERM-P No. 6133; BP 512); assay: as above; format: biochemical; settings: substance at 1 mM in the enzyme reaction system, added instead of the aqueous calcium chloride solution; lecithin emulsion, Tris-HCl pH 7.2, 37° C., 20 minutes
Method: as §1, §2, §3, §4, §5

## CCO [ethanol]
[1]
  influence on the activity of the enzyme (relative activity, activity at the time of adding water taken as 100): activating action
[2]
  influence on the activity of the enzyme (relative activity, activity at the time of adding water taken as 100): activating action

## CC(C)O [isopropanol]
[1]
  influence on the activity of the enzyme (relative activity, activity at the time of adding water taken as 100): activating action
[2]
  influence on the activity of the enzyme (relative activity, activity at the time of adding water taken as 100): activating action

## CC(C)(C)O [t-butanol]
[1]
  influence on the activity of the enzyme (relative activity, activity at the time of adding water taken as 100): activating action
[2]
  influence on the activity of the enzyme (relative activity, activity at the time of adding water taken as 100): activating action
